These results are taken from patent US7498340B2, “Esters in position 20 of camptothecins” (priority 2002, dated 2009).

Structures can show the parent of a compound that is named as a salt.

The first data set has as its system NCI-H460. The settings on record: read-out: Cytotoxicity test on H460 cells: IC50; H460 cells; printed as 42 nM±6.
A word on the IC50: it is the point on the concentration scale where inhibition reaches its midpoint. Consider `CC[C@@]1(OC(=O)CCCBr)C(=O)OCc2c1cc1n(c2=O)Cc2c-1nc1ccccc1c2/C=N/OC(C)(C)C` [ST2599, (E)-7-tert-butoxyiminomethyl-20-O-(4-bromo)-butyryl-camptothecin], for which the IC50 amounted to 0.042 µM.

Staying with this data set, now noted: read-out: NCI-H460 IC50; 2 h exposure, then 72 h recovery; concentration inhibiting 50% of cell survival; ALLFIT software.
Turning to “7-ter-butoxyiminomethyl-20-O-(2-methoxy-phenyl-glycyl)succinyl-camptothecin [ST1617]”, the IC50 was determined as 0.029 µM. On the same count and under the same terms, the same measure for “20-O-(2-methoxyphenylglycyl)succinyl-camptothecin [ST1454]”: 0.16 µM; for “20-O-(benzylglycyl)succinyl-camptothecin [ST1451]”: 0.15 µM; for “20-O-(terbutylglycyl)succinyl-camptothecin bromide [ST1453]”: 0.26 µM. On to `CC[C@@]1(OC(=O)CCC(=O)NCC(=O)O)C(=O)OCc2c1cc1n(c2=O)Cc2cc3ccccc3nc2-1` [ST1452, 20-O-(glycyl)succinyl-camptothecin], for which the IC50 was found to be 1.6 µM. On the same count and under the same terms, the same measure for `CC[C@@]1(OC(=O)CCC(=O)NCC(=O)OC(C)(C)C)C(=O)OCc2c1cc1n(c2=O)Cc2c-1nc1ccccc1c2C=NOC(C)(C)C` [ST1616, 7-ter-butoxyiminomethyl-20-O-(terbutylglycyl)succinyl-camptothecin]: 0.004 µM; for `CCC1(OC(=O)CCC(=O)NCCN(C)C)C(=O)OCc2c1cc1n(c2=O)Cc2c-1nc1ccccc1c2C=NOC(C)(C)C` (stereo not shown) [ST1657, (E)-7-tert-butoxyiminomethyl-20-O-[2-(dimethylamino)ethylamino]succinyl-camptothecin hydrochloride]: 0.012 µM; for `CCC1(OC(=O)CCC[N+](C)(C)C)C(=O)OCc2c1cc1n(c2=O)Cc2c-1nc1ccccc1c2C=NOC(C)(C)C` (stereo not shown) [ST2200, (E)-7-tert-butoxyiminomethyl-20-O-(4-trimethylammonium)-butanoyl-camptothecin bromide]: 0.017 µM. Still for that read-out and setting: the same measure for “(E)-7-tert-butoxyiminomethyl-20-O-(4-trimethyl-ammonium-3-hydroxy)butanoyl-camptothecin bromide [ST2204]”: 0.041 µM.
